In patent US7771967B2, “Nucleic acid encoding apolipoprotein E-I3” (The J. David Gladstone Institutes, priority 2006, dated 2010):

How the values were obtained:
[1] = Kainic acid injection, seizure activity in mice; format: in vivo, mouse; conditions: 25 mg/kg intraperitoneally, wildtype and human apoE3 or apoE4 knock-in mice, all mice
Protocol: (§1) Kainic acid injections. Kainic acid crosses the blood-brain barrier and induces excitotoxic CNS injury, particularly in the hippocampus and neocortex. Wildtype and human apoE3 or apoE4 knock-in mice at 4-6 months of age were injected intraperitoneally with kainic acid (Sigma) dissolved in saline (0.9%) at 25 mg/kg body weight in one dose, as described. Within ˜15 min, all mice developed seizures. Seizure activity was assessed as described. […] Mice were killed 1-6 days after the injection of kainic acid.

apoE-I3 mRNA = assay: qRT-PCR of apoE-I3 in hippocampus and cortex of kainic acid-treated mice; format: in vivo, mouse; conditions: human apoE knock-in mice, n=3
Protocol: ApoE-I3 and apoE mRNA levels in different samples were determined in duplicate by quantitative fluorogenic reverse transcription-PCR (qRT-PCR) using GAPDH mRNA as an internal control. RT reactions were performed with Superscript First-strand Synthesis System Kits (Invitrogen, Carlsbad, Calif.) as described earlier. qRT-PCR reactions consisted of 10 μl of diluted cDNA reaction mixture (equivalent to 4.0 ng of RNA template), 12.5 μl of SYBR Green PCR master mix (Applied Biosystems), and 300 nM of each forward and backward primer in a final volume of 25 μl. Serial dilution of pooled cDNA samples from all cells or tissues were used to generate standard curves to determine the relative levels of specific mRNAs in individual samples. The apoE-I3 mRNA levels were then calculated and normalized to the internal GAPDH mRNA standards.
as §1
Preparation of mouse brain tissues. […]

**Q.** With C=C(C)[C@H]1CN[C@H](C(=O)O)[C@H]1CC(=O)O [kainic acid, Kainic acid] as the compound, how does the “time from injection to seizures” value [1] read?
**A.** The value was no more than 15 min.

**Q.** What about the “increase of apoE-I3 expression (qRT-PCR)” value (apoE-I3 mRNA; cortex) of the same compound?
**A.** Its value is “not in the cortex”.

**Q.** What about the “increase of apoE-I3 expression (qRT-PCR)” value (apoE-I3 mRNA; hippocampus) of the same compound?
**A.** The value was “twofold”.
